Measurements from patent US5543415A, “Antidepressants” (Kyowa Hakko Kogyo Co., Ltd., priority 1992, dated 1996).

Tested on: ddY-strain male mice
Assay: Acute Toxicity Test (minimum lethal dose, oral)
Format: in vivo
Settings: seven days after administration
Protocol: Test compounds were orally administered to groups of ddY-strain male mice weighing 20±1 g, each group consisting of three mice. Seven days after the administration, minimum lethal dose (MLD) of each compound was determined by observing the mortality.

| SMILES | MLD (minimum lethal dose) [mg/kg] |
| --- | --- |
| CCn1c(=O)c2c(nc(/C=C/c3cc(C(F)(F)F)cc(C(F)(F)F)c3)n2C)n(CC)c1=O [Compound 154, (E)-8-[3,5-Bis (trifluoromethyl)styryl]-1,3-diethyl-7-methylxanthine] | > 100 |
| CCCn1c(=O)c2[nH]c(/C=C/c3cc(OC)c(OCc4ccccc4)c(OC)c3)nc2n(CCC)c1=O [Compound 27, (E)-8-(4-Benzyloxy-3,5-dimethoxystyryl)-1,3-dipropylxanthine] | > 100 |
| CCCn1c(=O)c2[nH]c(/C=C/c3cc(OC)c(OC)cc3Br)nc2n(CCC)c1=O [Compound 58, (E)-8-(2-Bromo-4,5-dimethoxystyryl)-1,3-dipropylxanthine] | > 300 |
| CCn1c(=O)c2c(nc(/C=C/c3cccc(F)c3)n2C)n(CC)c1=O [Compound 128, (E)-1,3-Diethyl-8-(3-fluorostyryl)-7-methylxanthine] | > 300 |
| CCn1c(=O)c2c(nc(/C=C/c3cc(C)c(OC)cc3C)n2C)n(CC)c1=O [Compound 84, (E)-1,3-Diethyl-8-(4-methoxy-2,5-dimethylstyryl)-7-methylxanthine] | > 300 |
| COc1ccc(/C=C/c2nc3c(=O)n(C)c(=O)n(C)c3[nH]2)c(OC)c1OC [Compound 91, (E)-8-(2,3,4-Trimethoxystyryl)theophylline] | > 300 |
| CCn1c(=O)c2[nH]c(/C=C/c3cccc(Cl)c3)nc2n(CC)c1=O [Compound 131, (E)-8-(3-Chlorostyryl)-1,3-diethylxanthine] | > 100 |
| CCn1c(=O)c2c(nc(/C=C/c3cccc(OC)c3[N+](=O)[O-])n2C)n(CC)c1=O [Compound 122, (E)-1,3-Diethyl-8-(3-methoxy-2-nitrostyryl)-7-methyl-xanthine] | > 100 |
| CCCn1c(=O)c2c(nc(/C=C\c3ccc(OC)c(OC)c3)n2C)n(CCC)c1=O [Compound 47, (Z)-8-(3,4-Dimethoxystyryl)-7-methyl-1,3-dipropylxanthine] | > 300 |
| CCCn1c(=O)c2c(nc(/C=C/c3ccc(O)c(O)c3)n2C)n(CCC)c1=O [Compound 54, (E)-8-(3,4-Dihydroxystyryl)-7-methyl-1,3-dipropylxanthine] | > 100 |
| COc1cccc(/C=C/c2nc3c(c(=O)n(C)c(=O)n3C)n2C)c1OC [Compound 98, (E)-8-(2,3-Dimethoxystyryl)caffeine] | > 300 |
| CCCOc1ccc(/C=C/c2nc3c([nH]2)c(=O)n(CC)c(=O)n3CC)cc1 [Compound 125, (E)-1,3-Diethyl-8-(4-propoxystyryl)xanthine] | > 100 |
| CCCCOc1ccc(/C=C/c2nc3c(c(=O)n(CCC)c(=O)n3CCC)n2C)cc1 [Compound 53, (E)-8-(4-Butoxystyryl)-7-methyl-1,3-dipropylxanthine] | > 300 |
| CCOC(=O)COc1ccc(/C=C/c2nc3c(c(=O)n(CC)c(=O)n3CC)n2C)cc1 [Compound 189, (E)-8-(4-Ethoxycarbonylmethoxystyryl)-1,3-diethyl-7-methylxanthine] | > 100 |
| CCCn1c(=O)c2nc(/C=C/c3cc(OC)c(OC)c(OC)c3)[nH]c2n(CCC)c1=O [Compound 10, (E)-1,3-dipropyl-8-(3,4,5-trimethoxystyryl)xanthine] | > 300 |
| CCCn1c(=O)c2[nH]c(/C=C/c3cc(Br)c(OC)c(OC)c3)nc2n(CCC)c1=O [Compound 60, (E)-8-(3-Bromo-4,5-dimethoxystyryl)-1,3-dipropylxanthine] | > 300 |
| CCn1c(=O)c2[nH]c(/C=C/c3cccc(Br)c3)nc2n(CC)c1=O [Compound 161, (E)-8-(3-Bromostyryl)-1,3-diethylxanthine] | > 100 |
| COc1ccc(/C=C/c2nc3c([nH]2)c(=O)n(C)c(=O)n3C)c(OC)c1 [Compound 99, (E)-8-(2,4-Dimethoxystyryl)theophylline] | > 100 |
| CCn1c(=O)c2[nH]c(/C=C/c3ccc(C)cc3)nc2n(CC)c1=O [Compound 151, (E)-1,3-Diethyl-8-(4-methylstyryl)xanthine] | > 100 |
| CCCn1c(=O)c2[nH]c(/C=C/c3ccccc3F)nc2n(CCC)c1=O [Compound 43, (E)-8-(2-Fluorostyryl)-1,3-dipropylxanthine] | > 100 |
| CCn1c(=O)c2c(nc(/C=C/c3ccc(O)c(C)c3C)n2C)n(CC)c1=O [Compound 194, (E)-1,3-Diethyl-8-(4-hydroxy-2,3-dimethylstyryl)-7-methylxanthine] | > 100 |

| SMILES | MLD (minimum lethal dose) [mg/kg] |
| --- | --- |
| CCn1c(=O)c2[nH]c(/C=C/c3cccc(OC)c3)nc2n(CC)c1=O [Compound 139, (E)-1,3-Diethyl-8-(3-methoxystyryl)xanthine] | > 100 |
| CCCCOc1ccc(/C=C/c2nc3c([nH]2)c(=O)n(CCC)c(=O)n3CCC)cc1 [Compound 52, (E)-8-(4-Butoxystyryl)-1,3-dipropylxanthine] | > 100 |
| CCCn1c(=O)c2c(nc(/C=C/c3ccc(OC)c(Br)c3)n2C)n(CCC)c1=O [Compound 57, (E)-8-(3-Bromo-4-methoxystyryl)-7-methyl-1,3-dipropylxanthine] | > 100 |
| CCn1c(=O)c2[nH]c(/C=C/c3cc(OC)cc(OC)c3)nc2n(CC)c1=O [Compound 129, (E)-8-(3,5-Dimethoxystyryl)-1,3-diethylxanthine] | > 100 |
| CCn1c(=O)c2[nH]c(/C=C/c3ccc(OC)c(C)c3C)nc2n(CC)c1=O [Compound 81, (E)-1,3-Diethyl-8-(4-methoxy-2,3-dimethylstyryl)xanthine] | > 300 |
| CCCn1c(=O)c2[nH]c(/C=C/c3ccc4c(c3)OCO4)nc2n(CCC)c1=O [Compound 19, (E)-8-(3,4-Methylenedioxystyryl)-1,3-dipropylxanthine] | > 300 |
| CCn1c(=O)c2[nH]c(/C=C/c3cc(C)c(OC)cc3C)nc2n(CC)c1=O [Compound 83, (E)-1,3-Diethyl-8-(4-methoxy-2,5-dimethylstyryl)xanthine] | > 300 |
| C=CCn1c(=O)c2[nH]c(/C=C/c3ccc(OC)c(OC)c3)nc2n(CC=C)c1=O [Compound 69, (E)-1,3-Diallyl-8-(3,4-dimethoxystyryl)xanthine] | > 100 |
| CCn1c(=O)c2c(nc(/C=C/c3cc(OC)c(OC)cc3Br)n2C)n(CC)c1=O [Compound 118, (E)-8-(2-Bromo-4,5-dimethoxystyryl)-1,3-diethyl-7-methylxanthine] | > 100 |
| CCCn1c(=O)c2c(nc(/C=C\c3ccc(OC)c(OC)c3)n2C)n(CCC)c1=O [Compound 65, (Z)-8-(3,4-Dimethoxystyryl)-7-methyl-1,3-dipropylxanthine] | > 300 |
| CCCn1c(=O)c2c(nc(/C=C/c3ccc(OC)c(OC)c3)n2C)n(CCC)c1=S [Compound 72, (E)-8-(3,4-Dimethoxystyryl)-7-methyl-1,3-dipropyl-2-thioxanthine] | > 300 |
| CCn1c(=O)c2[nH]c(/C=C/c3ccc4c(c3)OCO4)nc2n(CC)c1=O [Compound 87, (E)-1,3-Diethyl-8-(3,4-methylenedioxystyryl)xanthine] | > 300 |
| CCn1c(=O)c2[nH]c(/C=C/c3ccc(OC)c(OC)c3)nc2n(CC)c1=O [Compound 73, (E)-8-(3,4-Dimethoxystyryl)-1,3-diethylxanthine] | > 300 |
| CCn1c(=O)c2c(nc(/C=C/c3ccc(OCCCCN)cc3)n2C)n(CC)c1=O [Compound 188, (E)-8-[4-(4-Aminobutoxy)styryl]-1,3-diethyl-7-methylxanthine] | > 100 |
| CCn1c(=O)c2c(nc(/C=C/c3ccc4c(c3)OCCO4)n2C)n(CC)c1=O [Compound 90, (E)-8-[2-(1,4-Benzodioxan-6-yl)vinyl]-1,3-diethyl-7-methylxanthine] | > 300 |
| CCn1c(=O)c2[nH]c(/C=C/c3cccc(OC)c3OC)nc2n(CC)c1=O [Compound 75, (E)-8-(2,3-Dimethoxystyryl)-1,3-diethylxanthine] | > 300 |
| CCCn1c(=O)c2c(nc(/C=C/c3ccc(OCC)c(OCC)c3)n2C)n(CCC)c1=O [Compound 55, (E)-8-(3,4-Diethoxystyryl)-7-methyl-1,3-dipropylxanthine] | > 100 |
| CCn1c(=O)c2c(nc(/C=C/c3cc(F)cc(F)c3)n2C)n(CC)c1=O [Compound 156, (E)-8-(3,5-Difluorostyryl)-1,3-diethyl-7-methylxanthine] | > 100 |
| CCn1c(=O)c2[nH]c(/C=C/c3ccc(F)c(Cl)c3)nc2n(CC)c1=O [Compound 176, (E)-8-(3-Chloro-4-fluorostyryl)-1,3-diethylxanthine] | > 100 |
| CCCn1c(=O)c2c(nc(/C=C/c3ccccc3Cl)n2C)n(CCC)c1=O [Compound 42, (E)-8-(2-Chlorostyryl)-7-methyl-1,3-dipropylxanthine] | > 100 |
| CCn1c(=O)c2c(nc(/C=C/c3ccc(F)c(F)c3)n2C)n(CC)c1=O [Compound 112, (E)-8-(3,4-Difluorostyryl)-1,3-diethyl-7-methylxanthine] | > 300 |
